Common to all, as to experiment: NCI anticancer screen, dose series, 48 h
Test [1] has as its system A498 renal.
In test [2] the test system is BT-549 breast.
Test [3] deals with CCRF-CEM leukemia.
Test [4] relates to DU-145 prostate.
Test [5] relates to K-562 leukemia.
Test [6] has as its system MDA-MB-231 breast.
Test [7] relates to OVCAR-4 ovarian.
The test system of test [8] is PC-3 prostate.
For test [9], the system named is SF-539 CNS.
In test [10] the test system is UO-31 renal.

Drawing on PubChem BioAssay (NCI), this text covers GI50 and TGI for 8 compounds.

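Test compounds were applied to cells in 96-well plates for 48 hours at 5 doses. GI50: concentration for 50% inhibition of growth. TGI marks complete inhibition of growth.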

Take `Cn1nc(C(F)(F)F)c(-c2ccc(Cl)c(C(F)(F)F)c2)c1-c1ccc(OCc2ccc(Cl)cc2)cc1O`: the GI50 in test [1] was 1.05 µM; in [2], 1.54 µM; in test [3], 1.85 µM; in test [4], 2.03 µM; in [5], 1.84 µM; in test [6], 1.59 µM. Besides, the GI50 in [7] was 1.62 µM; in [8] it was 1.66 µM; in [9], 1.65 µM; in test [10] it was 1.26 µM. Further, the TGI in [1] turned out to be 4.1 µM; in [2] it was 6.51 µM; in [3], 6.81 µM; in test [4], 7.47 µM; in test [5], 7.47 µM; in [6], 5.41 µM. In addition, the TGI in test [7] is 6.13 µM; in test [8], 6.68 µM; in test [9], 5.95 µM; in test [10] it was 4.39 µM.

As for `C=C1CCC2C3(C)COC(c4ccc(NC(C)=O)cc4)OC3CCC2(C)C1C/C=C1/C(=O)OCC1O` (stereo not drawn), the GI50 is over 100 µM in test [1]; 1.86 µM in [2]; 3.08 µM in test [3]; over 100 µM in test [4]; 2.26 µM in test [5]; over 100 µM in [6]. Besides, the GI50 in [7] was 6.81 µM; in test [8] it was 3.39 µM; in test [9] it was over 100 µM; in [10] it was 5.43 µM. Besides, the TGI in test [1] is over 100 µM; in [2], 9.35 µM; in test [3], over 100 µM; in test [4] it was over 100 µM; in test [5], over 100 µM; in test [6], over 100 µM. Moreover, the TGI in test [7], in [8], in [9] and in [10] was over 100 µM each time.

Turning to `CN(C)CCCNc1nn2c(=O)c3ccccc3nc2c2ccccc12`, the GI50 in test [1] is 9.06 µM; in [2], 10.9 µM; in [3] it was 13.7 µM; in test [4], 10.4 µM; in [5], 9.94 µM; in test [6], 8.02 µM. Besides, the GI50 in test [7] was 10.4 µM; in [8] it was 11.7 µM; in test [9], 3.95 µM; in test [10], 3.55 µM. Besides, the TGI in [1] came out at 21.4 µM; in test [2], 45.7 µM; in [3], 48.5 µM; in test [4], 28.4 µM; in [5], 31.8 µM; in [6], 28.1 µM. Also, the TGI in [7] was found to be 22.4 µM; in test [8], 36.9 µM; in test [9], 15.4 µM; in test [10], 18.2 µM.

As to `CC(=O)OCC1OC(OC2C(COC(C)=O)OC(OCCC[S-])C(OC(C)=O)C2OC(C)=O)C(OC(C)=O)C(OC(C)=O)C1OC(C)=O.[Au+].c1ccc(CN2[CH-]N(Cc3ccccc3)C(c3ccccc3)=C2c2ccccc2)cc1` (stereo not drawn), the GI50 in test [1] is 3.41 µM; in test [2], 3.37 µM; in test [3], 3.39 µM; in [4], 4.5 µM; in test [5], 3.27 µM; in test [6], 2.38 µM. The GI50 in [7] is 3.45 µM; in test [8], 3.28 µM; in test [9], 4.46 µM; in [10], 2.61 µM. The TGI in test [1] was found to be 11.1 µM; in [2], 14.8 µM; in [3] it was 21.5 µM; in [4] it was 17 µM; in test [5], 14.5 µM; in [6] it was 5.93 µM. For the same compound, the TGI was determined as 22.9 µM in test [7], 15 µM in test [8], 17.6 µM in [9] and 10.7 µM in [10].

Regarding `Cc1ccc2c(c1)C(=O)c1c-2n(CCCN)c(=O)c2cc([N+](=O)[O-])ccc12`, the GI50 in test [1] is 5.68 µM; in test [2], 0.746 µM; in test [3], 0.00683 µM; in test [4], 0.262 µM; in test [5], 0.11 µM; in test [6] it was 0.293 µM. For the same compound, the GI50 was 0.605 µM in test [7], 0.437 µM in test [8], 0.732 µM in test [9] and 0.144 µM in [10]. Moreover, the TGI in test [1] was 17.1 µM; in test [2], 1.57 µM; in test [3], 0.0559 µM; in test [4] it was 0.89 µM; in test [5], 0.721 µM; in [6] it was 0.827 µM. For the same compound, the TGI in test [7] is 1.26 µM; in test [8], 1.17 µM; in test [9], 1.44 µM; in [10], 0.811 µM.

As to `O=P(Oc1ccc(Cl)cc1)(Oc1ccc(Cl)cc1)N1CC1`, the TGI is over 10 µM in test [1]; over 10 µM in test [2]; 0.429 µM in [3]; over 10 µM in test [4]; over 10 µM in test [5]; over 10 µM in test [6]. For the same compound, the TGI in test [7], in [8], in test [9] and in test [10] was over 10 µM in each case.

In the case of `C/C(=N\NC(N)=O)C(CN1CCCCC1)C(c1ccccc1)c1c(O)c2ccccc2oc1=O` (stereo not drawn), the TGI in test [1], in [2], in [3], in test [4], in [5] and in test [6] was over 100 µM each time. Also, the TGI in [7], in [8], in [9] and in test [10] was over 100 µM each time. For the same compound, the GI50 in [2] was 86.7 µM; in test [4], over 100 µM; in test [6], over 100 µM; in test [8] it was 95.3 µM.

For `CC(C)C[C@H](NC(=O)[C@H](CCc1ccccc1)NC(=O)CN1CCOCC1)C(=O)N[C@@H](Cc1ccccc1)C(=O)N[C@@H](CC(C)C)C(=O)[C@@]1(C)CO1`, the GI50 in test [1] is 0.0227 µM; in [2], under 0.01 µM; in test [3], under 0.01 µM; in test [4] it was 0.0183 µM; in [5], 0.0252 µM; in test [6], under 0.0128 µM. For the same compound, the GI50 in [7] was under 0.0117 µM; in test [8], 0.0247 µM; in test [9], under 0.0133 µM; in test [10], 0.116 µM. For the same compound, the TGI in test [1] is 0.0987 µM; in test [2], 0.0242 µM; in [3] it was over 100 µM; in [4], 1.37 µM; in test [5], over 100 µM; in [6], 0.0635 µM. Also, the results for the TGI in test [8], in test [9] and in test [10] were 0.305 µM, 0.0367 µM and 0.575 µM, respectively.
